Target: T1, LexPR transactivator (Homo sapiens, UniProt P06401)
T1 construct: expressed in transfected cells; host or cells: germline-transgenic zebrafish (Danio rerio) carrying the Ds transposon driver cassette pDs(krt8:LPR-LOP:G4) or derivatives
T1 sequence (P06401 640-914): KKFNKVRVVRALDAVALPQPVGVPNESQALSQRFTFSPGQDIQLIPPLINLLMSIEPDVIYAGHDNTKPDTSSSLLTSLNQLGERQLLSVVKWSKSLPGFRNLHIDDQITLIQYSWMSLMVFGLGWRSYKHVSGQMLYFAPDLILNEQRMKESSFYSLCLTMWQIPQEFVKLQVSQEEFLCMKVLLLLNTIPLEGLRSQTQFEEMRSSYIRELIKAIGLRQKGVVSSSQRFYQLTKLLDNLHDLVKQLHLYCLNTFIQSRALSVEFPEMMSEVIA
Test: Mifepristone-induced EGFP reporter fluorescence in LexPR driver-reporter transgenic fish
Format: in vivo, zebrafish
From the text: Generating transgenic fish using Ac/Ds transposon system: Transgenic fish carrying insertions of the driver and effector constructs containing Ds cis-required sequences (as described herein) were generated as previously described (Emelyanov et al., 2006). 5-10 pg of plasmid DNA was co-injected into zebrafish embryos (yolk center) with 25-50 pg of in vitro synthesized transposase mRNA at the 1-2-cell stage. […] Only the lines that segregated as a single locus (produced 1:1 ratio when outcrossed to nontransgenic fish) were selected.

Reporter expression at lowest inducible concentration (1 nM): significantly weaker reporter expression | EGFP expression induced (10 nM, after 24 hours of incubation): Strong EGFP expression | Time until EGFP fluorescence was observed after adding mifepristone (1 μM and 100 nM final concentration in growth water): 6 to 9 h | Lowest inducible concentration (EGFP reporter, growth water): 1 nM | Concentration required for effective transcription induction (in the growth water): 0.01 to 1 µM
Compound: CC#C[C@]1(O)CC[C@H]2[C@@H]3CCC4=CC(=O)CCC4=C3[C@@H](c3ccc(N(C)C)cc3)C[C@@]21C [mifepristone]

— patent US8852928B2, “LexA-based chemical-inducible gene expression system for use in transgenic animals” (Temasek Life Sciences Laboratory Limited, priority 2007, dated 2014)
